Source: ChEMBL document CHEMBL5131471, “Design, synthesis and mechanism studies of novel dual PARP1/BRD4 inhibitors against pancreatic cancer” (Eur J Med Chem, 2022)
Activity calls are given as the source filed them. The calls are words filed in the database; no cut-off is given here.

Tests used:
[1] = tested on: Mus musculus; assay: Upregulation of CDK6 expression in nude mouse xenografted with human SW1990 cells at 45 mg/kg, ip measured after 4 days by Western blot analysis; format: functional, organism-based; conditions: time 4.0 day
[2] = tested on: SW1990; assay: Effect on CCNB1 gene expression in human SW1990 cells at 6 uM by Q-PCR analysis; format: functional, cell-based
[3] = tested on: Mus musculus; assay: Upregulation of CDC25B expression in nude mouse xenografted with human SW1990 cells at 45 mg/kg, ip measured after 4 days by Western blot analysis; format: functional, organism-based; conditions: time 4.0 day
[4] = tested on: SW1990; assay: Upregulation of Rad51 expression in human SW1990 cells at 6 uM measured after 4 days by Western blot analysis; format: functional, cell-based; conditions: time 4.0 day
[5] = tested on: SW1990; assay: Effect on TOPBP1 gene expression in human SW1990 cells at 6 uM by Q-PCR analysis; format: functional, cell-based
[6] = tested on: SW1990; assay: Effect on Rad51 gene expression in human SW1990 cells at 6 uM by Q-PCR analysis; format: functional, cell-based
[7] = tested on: Mus musculus; assay: Upregulation of CDK1 expression in nude mouse xenografted with human SW1990 cells at 45 mg/kg, ip measured after 4 days by Q-PCR analysis; format: functional, organism-based; conditions: time 4.0 day
[8] = tested on: SW1990; assay: Induction of DNA damage in human SW1990 cells assessed as increase in tail DNA at 6 uM incubated for 4 days by comet assay; format: functional, cell-based; conditions: time 4.0 day
[9] = tested on: SW1990; assay: Effect on CDC25A gene expression in human SW1990 cells at 6 uM by Q-PCR analysis; format: functional, cell-based
[10] = tested on: Mus musculus; assay: Upregulation of CCNB1 expression in nude mouse xenografted with human SW1990 cells at 45 mg/kg, ip measured after 4 days by Q-PCR analysis; format: functional, organism-based; conditions: time 4.0 day
[11] = tested on: Mus musculus; assay: Upregulation of CCND1 expression in nude mouse xenografted with human SW1990 cells at 45 mg/kg, ip measured after 4 days by Q-PCR analysis; format: functional, organism-based; conditions: time 4.0 day
[12] = Toxicity in nude mouse xenografted with human SW1990 cells assessed as heart damage at 15 mg/kg, ip administered for 28 days by H and E staining based fluorescence microscopic analysis; format: organism-based; conditions: in vivo, 672 h, time 28 day
[13] = tested on: SW1990; assay: Induction of apoptosis in human SW1990 cells assessed as necrotic cells at 4 uM measured after 4 days by Annexin V-FITC/propidium iodide staining based flow cytometry (reference value: 2.45%); format: functional; conditions: time 4 day
[14] = tested on: SW1990; assay: Effect on MDC1 gene expression in human SW1990 cells at 4 uM by Q-PCR analysis; format: functional, cell-based
[15] = tested on: SW1990; assay: Induction of DNA damage in human SW1990 cells assessed as increase in tail DNA at 4 uM incubated for 4 days by comet assay; format: functional, cell-based; conditions: time 4.0 day
[16] = tested on: SW1990; assay: Induction of cell cycle arrest in human SW1990 cells assessed as accumulation of cells at G2/M phase at 1 uM incubated for 4 days in presence of 3 uM Olaparib by propidium iodide staining based flow cytometry (reference value: 5.89%); format: functional; conditions: time 4 day
[17] = tested on: SW1990; assay: Effect on c-Myc gene expression in human SW1990 cells at 4 uM by Q-PCR analysis; format: functional, cell-based
[18] = tested on: SW1990; assay: Effect on BRCA1 gene expression in human SW1990 cells at 1 uM in presence of Olaparib by Q-PCR analysis; format: functional, cell-based
[19] = tested on: SW1990; assay: Effect on HEXIM1 gene expression in human SW1990 cells at 1 uM in presence of Olaparib by Q-PCR analysis; format: functional, cell-based
[20] = tested on: SW1990; assay: Induction of DNA damage in human SW1990 cells assessed as increase in gammaH2AX expression at 4 uM incubated for 4 days by DAPI staining based laser confocal microscopic analysis; format: functional, cell-based; conditions: time 4.0 day
[21] = Toxicity in nude mouse xenografted with human SW1990 cells assessed as heart damage at 15 mg/kg, ip administered for 28 days in presence of 45 mg/kg Olaparib by H and E staining based fluorescence microscopic analysis; format: organism-based; conditions: in vivo, 672 h, time 28 day
[22] = tested on: SW1990; assay: Effect on CDC25A gene expression in human SW1990 cells at 1 uM in presence of Olaparib by Q-PCR analysis; format: functional, cell-based
[23] = tested on: SW1990; assay: Effect on FOXO1 gene expression in human SW1990 cells at 4 uM by Q-PCR analysis; format: functional, cell-based
[24] = tested on: SW1990; assay: Effect on FOXO1 gene expression in human SW1990 cells at 1 uM in presence of Olaparib by Q-PCR analysis; format: functional, cell-based
[25] = tested on: SW1990; assay: Induction of cell cycle arrest in human SW1990 cells assessed as accumulation of cells at S phase at 1 uM incubated for 4 days in presence of 3 uM Olaparib by propidium iodide staining based flow cytometry (reference value: 29.32%); format: functional; conditions: time 4 day
[26] = tested on: SW1990; assay: Effect on CDK1 to 2 gene expression in human SW1990 cells at 1 uM in presence of Olaparib by Q-PCR analysis; format: functional, cell-based
[27] = tested on: SW1990; assay: Effect on HEXIM1 gene expression in human SW1990 cells at 4 uM by Q-PCR analysis; format: functional, cell-based
[28] = tested on: Mus musculus; assay: Inhibition of homologous recombinant repair in nude mouse xenografted with human SW1990 cells assessed as reversal of olaparib-induced HEXIM1 expression at 30 mg/kg, ip measured after 4 days by Western blot analysis; format: functional, organism-based; conditions: time 4.0 day
[29] = tested on: SW1990; assay: Effect on HEXIM1 gene expression in human SW1990 cells at 1 to 2 uM by Q-PCR analysis; format: functional, cell-based; conditions: dose 1-2 µM
[30] = tested on: SW1990; assay: Downregulation of BRD4 expression in human SW1990 cells at 2 uM measured after 4 days by Western blot analysis; format: functional, cell-based; conditions: time 4.0 day
[31] = Toxicity in nude mouse xenografted with human SW1990 cells assessed as kidney damage at 30 mg/kg, ip administered for 28 days by H and E staining based fluorescence microscopic analysis; format: organism-based; conditions: in vivo, 672 h, time 28 day
[32] = tested on: SW1990; assay: Inhibition of homologous recombinant repair in human SW1990 cells assessed as reversal of Olaparib-induced HEXIM1 expression at 1 to 2 uM after 4 days by Western blot analysis; format: functional, cell-based; conditions: dose 1-2 µM, time 4.0 day
[33] = tested on: Mus musculus; assay: Inhibition of CDK1 expression in nude mouse xenografted with human SW1990 cells at 30 mg/kg, ip measured after 4 days by Q-PCR analysis; format: functional, organism-based; conditions: time 4.0 day
[34] = tested on: SW1990; assay: Induction of cell cycle arrest in human SW1990 cells assessed as accumulation of cells at G2/M phase at 2 uM incubated for 4 days by propidium iodide staining based flow cytometry (reference value: 5.89%); format: functional; conditions: time 4 day
[35] = Toxicity in nude mouse xenografted with human SW1990 cells assessed as lung damage at 30 mg/kg, ip administered for 28 days by H and E staining based fluorescence microscopic analysis; format: organism-based; conditions: in vivo, 672 h, time 28 day
[36] = tested on: SW1990; assay: Induction of cell cycle arrest in human SW1990 cells assessed as accumulation of cells at G2/M phase at 1 uM incubated for 4 days by propidium iodide staining based flow cytometry (reference value: 5.89%); format: functional; conditions: time 4 day
[37] = tested on: Mus musculus; assay: Inhibition of homologous recombinant repair in nude mouse xenografted with human SW1990 cells assessed as reversal of olaparib-induced MDC1 expression at 30 mg/kg, ip measured after 4 days by Western blot analysis; format: functional, organism-based; conditions: time 4.0 day
[38] = tested on: SW1990; assay: Effect on TOPBP1 gene expression in human SW1990 cells at 1 to 2 uM by Q-PCR analysis; format: functional, cell-based; conditions: dose 1-2 µM
[39] = tested on: SW1990; assay: Effect on ALDH1A1 gene expression in human SW1990 cells at 1 to 2 uM by Q-PCR analysis; format: functional, cell-based; conditions: dose 1-2 µM

O=C(c1cc(Cc2n[nH]c(=O)c3ccccc23)ccc1F)N1CCN(C(=O)C2CC2)CC1 [OLAPARIB]
Activity [1]: Active
Activity [2]: Active
Activity [3]: Active
Activity [4]: Active
Activity [5]: Active
Activity [6]: Active
Activity [7]: Active
Activity [8]: Active
Activity [9]: Active
Activity [10]: Active
Activity [11]: Active

Cc1sc2c(c1C)C(c1ccc(Cl)cc1)=N[C@@H](CC(=O)OC(C)(C)C)c1nnc(C)n1-2
Activity [12]: Non-Toxic
Activity [13]: 3.35%
Activity [14]: Active
Activity [15]: Active
Activity [16]: 9.14%
Activity [17]: Active
Activity [18]: Active
Activity [19]: Active
Activity [20]: Active
Activity [21]: Non-Toxic
Activity [22]: Active
Activity [23]: Active
Activity [24]: Active
Activity [25]: 19.33%
Activity [26]: Active
Activity [27]: Active

Cc1noc(C)c1-c1ccc2c(c1)C(c1ccccc1)N(Cc1nc3c(C(N)=O)cccc3[nH]1)C(=O)N2C (centres undefined)
inhibition [28]: Active
Activity [29]: Active
Activity [30]: Active
Activity [31]: Non-Toxic
inhibition [32]: Active
inhibition [33]: Active
Activity [34]: 12.83%
Activity [35]: Non-Toxic
Activity [36]: 10.13%
inhibition [37]: Active
Activity [38]: Active
Activity [39]: Active
